Test results taken from ChEMBL document CHEMBL5108060, “Discovery, Characterization, and Structure-Based Optimization of Small-Molecule In Vitro and In Vivo Probes for Human DNA Polymerase Theta” (J Med Chem, 2022).
Converted amounts (≈) assume the structure as drawn. The source made the active and inactive calls. The rule behind the calls is not given here.

What was measured:
[1] = biological target: T1, DNA polymerase theta (Homo sapiens, UniProt O75417); assay: Displacement of tracer from recombinant Tb-labeled DNA polymerase theta (unknown origin) assessed as end point Kd using DNA as substrate preincubated for 30 mins followed by compound addition for 2 hrs by HTRF assay
[2] = tested on: DLD-1; assay: Antiproliferative activity against human BRCA-2 deficient DLD-1 cells; type: functional, cell-based
[3] = biological target: T1, DNA polymerase theta; assay: Displacement of tracer from recombinant Tb-labeled DNA polymerase theta (unknown origin) using DNA as substrate preincubated for 30 mins followed by compound addition for 2 hrs by HTRF assay
[4] = tested on: DLD-1; assay: Antiproliferative activity against human DLD-1 cells; type: functional, cell-based
[5] = Inhibition of microhomology-mediated end joining in HEK293 cells; type: functional, cell-based, Homo sapiens
[6] = biological target: T1, DNA polymerase theta; assay: Inhibition of recombinant human full length DNA polymerase theta using DNA substrate measured after 1 hrs in presence of dNTPs by plate reader assay
[7] = Metabolic stability in mouse liver microsomes assessed as intrinsic clearance; type: ADME, Microsome; details: read-out: CLH
[8] = Lipophilicity, logD of compound; type: physicochemical; details: octanol/water
[9] = AUCinfinity in mouse at 10 mg/kg, po; type: ADME, organism-based; parameters: time infinity, dose 10 mg/kg, route po; details: in vivo
[10] = Metabolic stability in rat liver microsomes assessed as intrinsic clearance; type: ADME, Microsome; details: read-out: CLH
[11] = Oral bioavailability in rat at 10 mg/kg; type: ADME, organism-based; details: in vivo
[12] = Metabolic stability in human liver microsomes assessed as intrinsic clearance; type: ADME, Microsome; details: read-out: CLH
[13] = Volume of distribution at steady state in mouse at 3 mg/kg, iv; type: ADME, organism-based; details: in vivo, read-out: Vdss
[14] = Solubility of the compound; type: physicochemical
[15] = tested on: Breast carcinoma cell; assay: Antitumor activity against BRCA1/SHLD2 knockout rat breast cancer xenograft model assessed as tumor growth inhibition at 100 mg/kg, po qd; type: functional, organism-based
[16] = Clearance in rat plasma at 3 mg/kg, iv; type: ADME, organism-based
[17] = Oral bioavailability in mouse at 10 mg/kg; type: ADME, organism-based; details: in vivo
[18] = Clearance in mouse plasma at 3 mg/kg, iv; type: ADME, organism-based
[19] = Mutagenicity in Salmonella typhimurium LT2 TA98 in presence or absence of S9 fraction by Ames test; type: toxicity; details: salmonella enterica subsp. enterica serovar typhimurium
[20] = AUCinfinity in rat at 10 mg/kg, po; type: ADME, organism-based; parameters: time infinity, dose 10 mg/kg, route po; details: in vivo
[21] = Free maximum concentration of drug in mouse at 10 mg/kg, po; type: ADME, organism-based; details: in vivo
[22] = Free maximum concentration of drug in rat at 10 mg/kg, po; type: ADME, organism-based; details: in vivo
[23] = In vivo inhibition of DNA polymerase theta in mouse assessed as fold induction of micronuclei in reticulocytes at 150 mg/kg, po BID for 4 days by flow cytometry analysis; type: functional; details: time 4 day
[24] = Volume of distribution at steady state in rat at 3 mg/kg, iv; type: ADME, organism-based; details: in vivo, read-out: Vdss
[25] = Half life in rat at 3 mg/kg, iv; type: ADME, organism-based; details: in vivo
[26] = Clearance in mouse plasma at 0.3 mg/kg, iv; type: ADME, organism-based
[27] = Half life in mouse at 3 mg/kg, iv; type: ADME, organism-based; details: in vivo
[28] = Mutagenicity in Salmonella typhimurium LT2 TA100 in presence or absence of S9 fraction by Ames test; type: toxicity; details: salmonella enterica subsp. enterica serovar typhimurium
[29] = biological target: T1, DNA polymerase theta; assay: Inhibition of human full length DNA polymerase theta ATPase activity by ADP-Glo assay
[30] = Thermodynamic solubility of the compound; type: physicochemical; details: read-out: Therm_solubility

T1 sequence (O75417 whole entry): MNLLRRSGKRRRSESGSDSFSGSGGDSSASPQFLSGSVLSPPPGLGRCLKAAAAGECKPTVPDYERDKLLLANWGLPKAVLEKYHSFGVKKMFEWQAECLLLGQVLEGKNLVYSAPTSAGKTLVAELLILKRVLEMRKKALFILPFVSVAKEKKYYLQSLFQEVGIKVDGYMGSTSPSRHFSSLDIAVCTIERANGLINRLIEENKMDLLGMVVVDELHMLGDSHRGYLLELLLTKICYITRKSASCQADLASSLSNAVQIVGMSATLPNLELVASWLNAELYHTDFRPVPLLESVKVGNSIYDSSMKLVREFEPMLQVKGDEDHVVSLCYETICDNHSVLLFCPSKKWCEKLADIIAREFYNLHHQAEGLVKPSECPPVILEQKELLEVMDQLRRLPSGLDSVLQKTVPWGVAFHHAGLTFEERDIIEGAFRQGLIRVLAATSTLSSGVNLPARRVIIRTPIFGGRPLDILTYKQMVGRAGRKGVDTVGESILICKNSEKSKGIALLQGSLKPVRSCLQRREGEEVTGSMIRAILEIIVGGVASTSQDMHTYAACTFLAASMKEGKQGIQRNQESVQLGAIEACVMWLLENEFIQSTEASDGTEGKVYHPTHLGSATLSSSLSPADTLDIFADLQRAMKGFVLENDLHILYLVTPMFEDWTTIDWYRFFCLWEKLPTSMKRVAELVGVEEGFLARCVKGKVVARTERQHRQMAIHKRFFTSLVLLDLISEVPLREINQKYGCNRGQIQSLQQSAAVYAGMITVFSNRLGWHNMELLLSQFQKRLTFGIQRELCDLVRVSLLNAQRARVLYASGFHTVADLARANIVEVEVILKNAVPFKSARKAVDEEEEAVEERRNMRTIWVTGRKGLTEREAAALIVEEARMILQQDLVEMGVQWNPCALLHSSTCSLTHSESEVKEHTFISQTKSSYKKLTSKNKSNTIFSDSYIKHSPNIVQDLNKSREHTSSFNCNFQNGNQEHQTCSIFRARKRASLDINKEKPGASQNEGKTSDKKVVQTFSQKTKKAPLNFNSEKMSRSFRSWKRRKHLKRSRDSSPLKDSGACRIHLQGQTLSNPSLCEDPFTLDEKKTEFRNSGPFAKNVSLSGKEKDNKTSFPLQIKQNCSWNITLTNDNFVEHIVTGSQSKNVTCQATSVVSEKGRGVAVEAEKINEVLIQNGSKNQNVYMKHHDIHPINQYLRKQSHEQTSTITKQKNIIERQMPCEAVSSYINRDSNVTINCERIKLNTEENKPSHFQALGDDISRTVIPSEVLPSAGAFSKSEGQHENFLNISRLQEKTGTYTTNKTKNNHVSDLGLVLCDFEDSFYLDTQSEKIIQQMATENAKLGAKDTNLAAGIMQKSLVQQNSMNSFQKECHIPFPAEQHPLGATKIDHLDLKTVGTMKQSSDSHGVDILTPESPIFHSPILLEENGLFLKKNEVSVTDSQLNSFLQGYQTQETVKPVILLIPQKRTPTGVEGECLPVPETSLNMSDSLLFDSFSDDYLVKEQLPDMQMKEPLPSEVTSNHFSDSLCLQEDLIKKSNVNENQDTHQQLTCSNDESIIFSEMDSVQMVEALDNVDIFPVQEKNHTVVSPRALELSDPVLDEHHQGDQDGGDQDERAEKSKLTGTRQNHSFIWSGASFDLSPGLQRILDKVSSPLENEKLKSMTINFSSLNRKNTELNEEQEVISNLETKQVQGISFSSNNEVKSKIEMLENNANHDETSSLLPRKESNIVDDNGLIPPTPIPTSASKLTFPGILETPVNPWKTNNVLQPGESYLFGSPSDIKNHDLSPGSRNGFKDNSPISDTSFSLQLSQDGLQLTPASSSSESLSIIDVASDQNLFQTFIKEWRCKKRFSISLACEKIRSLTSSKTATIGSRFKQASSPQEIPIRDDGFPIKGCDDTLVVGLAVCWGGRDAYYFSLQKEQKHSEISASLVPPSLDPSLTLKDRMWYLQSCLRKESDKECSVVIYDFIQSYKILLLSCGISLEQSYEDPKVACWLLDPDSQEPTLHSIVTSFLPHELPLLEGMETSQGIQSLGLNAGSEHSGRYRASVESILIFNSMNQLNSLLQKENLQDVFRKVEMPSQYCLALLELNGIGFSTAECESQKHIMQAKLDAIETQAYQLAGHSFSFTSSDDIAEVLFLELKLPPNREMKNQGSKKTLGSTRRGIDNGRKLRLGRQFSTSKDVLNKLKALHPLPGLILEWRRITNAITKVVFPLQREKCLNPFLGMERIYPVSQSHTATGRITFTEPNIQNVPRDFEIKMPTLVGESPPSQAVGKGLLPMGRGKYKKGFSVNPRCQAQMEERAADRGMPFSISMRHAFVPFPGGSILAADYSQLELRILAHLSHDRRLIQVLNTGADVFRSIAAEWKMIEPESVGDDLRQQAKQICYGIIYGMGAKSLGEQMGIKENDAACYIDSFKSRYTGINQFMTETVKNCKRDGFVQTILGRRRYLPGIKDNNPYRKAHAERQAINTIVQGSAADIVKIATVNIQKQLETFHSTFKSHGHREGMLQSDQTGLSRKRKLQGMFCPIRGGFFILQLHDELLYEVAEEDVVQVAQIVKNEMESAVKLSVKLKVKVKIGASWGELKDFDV

## Cc1cccc(N(C)C(=O)[C@@H]2[C@@H](O)CCN2c2nc(C)cc(C(F)(F)F)c2C#N)c1
[1]
  Kd: 0.042 µM
[2]
  EC50: 3 µM
[3]
  Kd: 0.024 µM
[4]
  EC50: > 12 µM
[5]
  EC50: 0.32 µM

## CCN(C(=O)COc1nc(C)cc(C(F)(F)F)c1C#N)c1cccc(C)c1
[1]
  Kd: 0.061 µM
[2]
  EC50: > 12 µM
[6]
  IC50: 0.5 µM
[4]
  EC50: > 12 µM
[5]
  EC50: 0.68 µM

## Cc1cc(C(F)(F)F)cc(N2C(=O)OC[C@H]2C(=O)N(c2ccc(F)c(Cl)c2)C(C)C)n1
[7]
  microsomal CLint: 48 µL/min/mg
[8]
  logD: 4.4

## CCN(C(=O)COc1nc(C)c(Br)c(C(F)(F)F)c1C#N)c1cccc(C)c1
[6]
  IC50: 0.4 µM

## Cc1cccc(N(C)C(=O)[C@@H]2CCC(=O)N2c2cc(C(F)(F)F)cc(C)n2)c1
[7]
  microsomal CLint: > 1000 µL/min/mg
[8]
  logD: 3.7
[6]
  IC50: 0.0068 µM

## Cc1cc(C(F)(F)F)c(C#N)c(N2C[C@@H](O)C[C@H]2C(=O)N(C)c2ccccc2)n1
[1]
  Kd: 0.11 µM
[2]
  EC50: 8 µM
[4]
  EC50: > 12 µM
[5]
  EC50: 0.4 µM

## CCN(C(=O)[C@@H]1CCCN1c1nc(C)cc(C)c1C#N)c1cccc(C)c1
[6]
  IC50: 0.072 µM

## Cc1cc(C(F)(F)F)cc(N2C(=O)OC[C@H]2C(=O)N(C)c2cccc(Cl)c2)n1
[7]
  microsomal CLint: 410 µL/min/mg

## Cc1cc(C(F)(F)F)cc(N2C(=O)C[C@@H](O)[C@H]2C(=O)N(C)c2ccc(F)c(Cl)c2)n1
[7]
  microsomal CLint: 260 µL/min/mg
[2]
  EC50: 2 µM
[6]
  IC50: 0.0059 µM
[4]
  EC50: > 12 µM
[5]
  EC50: 0.255 µM

## Cc1cc(C(F)(F)F)cc(N2C(=O)[C@@H](O)[C@@H](O)[C@H]2C(=O)N(C)c2ccc(F)c(Cl)c2)n1
[7]
  microsomal CLint: 42 µL/min/mg
[9]
  AUC(0-inf): 54700 ng·h/mL
[10]
  microsomal CLint: 50 µL/min/mg
[11]
  bioavailability: 57%
[12]
  microsomal CLint: 30 µL/min/mg
[13]
  Vd: 2.5 L/kg
[8]
  logD: 3
[2]
  EC50: 1.1 µM
[14]
  solubility: 880 µM (≈ 406 µg/mL)
[15]
  Activity: Active
[16]
  clearance: 35 mL/min/kg
[6]
  IC50: 0.0076 µM
[17]
  bioavailability: 80%
[4]
  EC50: > 12 µM
[18]
  clearance: 2.8 mL/min/kg
[19]
  Activity: Non-Toxic
[20]
  AUC(0-inf): 2750 ng·h/mL
[21]
  fCmax: 405 nM
[22]
  fCmax: 79 nM
[23]
  fold change (FC): 2
[24]
  Vd: 2.9 L/kg
[5]
  EC50: 0.24 µM
[25]
  half-life: 1.3 h
[26]
  clearance: 16.4 mL/min/kg
[27]
  half-life: 7 h
[28]
  Activity: Non-Toxic

## CCN(C(=O)[C@@H]1[C@H](O)[C@H](O)C(=O)N1c1cc(C(F)(F)F)cc(C)n1)c1ccc(F)c(Cl)c1
[7]
  microsomal CLint: 20 µL/min/mg
[10]
  microsomal CLint: 30 µL/min/mg
[12]
  microsomal CLint: < 10 µL/min/mg
[2]
  EC50: 6.9 µM
[4]
  EC50: > 12 µM
[5]
  EC50: 0.362 µM

## CCN(C(=O)COc1cc(C)cc(C)n1)c1cccc(C)c1
[6]
  IC50: 4.2 µM

## CCN(C(=O)[C@H](C)Nc1nc(C)cc(C(C)C)c1C#N)c1cccc(C)c1
[6]
  IC50: 0.049 µM

## CCN(C(=O)[C@@H]1C[C@H](O)C(=O)N1c1cc(C(F)(F)F)cc(C)n1)c1ccc(F)c(Cl)c1
[7]
  microsomal CLint: 181 µL/min/mg

## CCN(C(=O)[C@H](C)Nc1nc(C)cc(C)c1C#N)c1cccc(C)c1
[6]
  IC50: 0.23 µM

## Cc1cccc(N(C)C(=O)[C@@H]2COC(=O)N2c2cc(C(F)(F)F)cc(C)n2)c1
[7]
  microsomal CLint: 580 µL/min/mg
[8]
  logD: 3.6

## CCN(C(=O)COc1nc(C)c(Cl)c(C)c1C#N)c1cccc(C)c1
[6]
  IC50: 0.63 µM

## Cc1cc(C(F)(F)F)cc(N2C(=O)OC[C@H]2C(=O)N(C)c2cc(Cl)ccc2F)n1
[7]
  microsomal CLint: 157 µL/min/mg

## CCN(C(=O)[C@H](C)Nc1nc(C)cc(C(F)(F)F)c1C#N)c1cccc(C)c1
[6]
  IC50: 0.029 µM

## Cc1cc(C(F)(F)F)cc(N2C(=O)OC[C@H]2C(=O)N(C)c2ccc(F)c(Cl)c2F)n1
[7]
  microsomal CLint: 210 µL/min/mg
[6]
  IC50: 0.0054 µM

## CCN(C(=O)COc1nc(C)cc(C)c1C#N)c1cccc(C)c1
[1]
  Kd: 0.82 µM
[2]
  EC50: > 12 µM
[6]
  IC50: 4.4 µM
[4]
  EC50: > 12 µM
[5]
  EC50: 1.84 µM

## Cc1cccc(N(C)C(=O)[C@@H]2C[C@H](O)CN2c2nc(C)cc(C)c2C#N)c1
[1]
  Kd: 0.051 µM
[2]
  EC50: 4.1 µM
[3]
  Kd: 0.019 µM
[4]
  EC50: > 12 µM
[5]
  EC50: 0.28 µM

## Cc1cccc(N(C(=O)[C@@H]2CCCN2c2nc(C)cc(C(F)(F)F)c2C#N)C(C)C)c1
[6]
  IC50: 0.0088 µM

## Cc1cccc(N(C)C(=O)[C@@H]2C[C@H](O)CN2c2nccc(C(F)(F)F)c2C#N)c1
[2]
  EC50: 11.5 µM
[4]
  EC50: > 12 µM
[5]
  EC50: 1.03 µM

## Cc1cc(C(F)(F)F)cc(N2C(=O)[C@@H](O)C[C@H]2C(=O)N(C)c2ccc(F)c(Cl)c2)n1
[7]
  microsomal CLint: 96 µL/min/mg
[12]
  microsomal CLint: 60 µL/min/mg

## Cc1cc(C(F)(F)F)cc(N2C(=O)OC[C@H]2C(=O)N(C)c2ccc(F)c(Cl)c2)n1
[7]
  microsomal CLint: 138 µL/min/mg
[6]
  IC50: 0.015 µM

## CCN(C(=O)CNc1nc(C)cc(C)c1C#N)c1cccc(C)c1
[6]
  IC50: 1.8 µM

## CCN(C(=O)COc1cc(C(C)C)cc(C)n1)c1cccc(C)c1
[6]
  IC50: 0.4 µM

## Cc1cccc(N(C)C(=O)[C@@H]2C[C@H](O)CN2c2nc(C)cc(C(F)(F)F)c2C#N)c1
[8]
  logD: 3.6
[2]
  EC50: 2.3 µM
[4]
  EC50: > 12 µM
[5]
  EC50: 0.205 µM

## CCN(C(=O)COc1cc(C(F)(F)F)cc(C)n1)c1cccc(C)c1
[6]
  IC50: 0.53 µM

## Cc1cc(C(F)(F)F)cc(N2C(=O)OC[C@H]2C(=O)N(C)c2ccc(F)c(C)c2F)n1
[7]
  microsomal CLint: 818 µL/min/mg
[6]
  IC50: 0.0041 µM

## Cc1cc(C(F)(F)F)cc(N2C(=O)OC[C@H]2C(=O)N(C)c2cccc(Cl)c2F)n1
[7]
  microsomal CLint: 165 µL/min/mg

## Cc1cccc(N(C)C(=O)[C@@H]2[C@H](O)CCN2c2nc(C)cc(C(F)(F)F)c2C#N)c1
[7]
  microsomal CLint: > 1500 µL/min/mg
[1]
  Kd: 0.0064 µM
[8]
  logD: 3.5
[29]
  IC50: > 12 µM
[2]
  EC50: 0.8 µM
[3]
  Kd: 0.0048 µM
[4]
  EC50: > 12 µM
[30]
  solubility thermodynamic: 381 µM (≈ 159 µg/mL)
[5]
  EC50: 0.18 µM

## Cc1cc(C(F)(F)F)cc(N2C(=O)[C@H](O)[C@H](O)[C@@H]2C(=O)N(C)c2ccc(F)c(Cl)c2)n1
[2]
  EC50: > 12 µM
[6]
  IC50: > 12 µM
[4]
  EC50: > 12 µM

## CCN(C(=O)[C@@H](C)Nc1nc(C)cc(C(F)(F)F)c1C#N)c1cccc(C)c1
[6]
  IC50: 5.1 µM

## CCN(C(=O)[C@H](CO)Nc1nc(C)cc(C(F)(F)F)c1C#N)c1cccc(C)c1
[1]
  Kd: 0.035 µM
[8]
  logD: 4
[2]
  EC50: 11 µM
[6]
  IC50: 0.079 µM
[4]
  EC50: > 12 µM
[5]
  EC50: 0.255 µM

## CCN(C(=O)[C@@H]1COCCN1c1nc(C)cc(C(F)(F)F)c1C#N)c1cccc(C)c1
[6]
  IC50: 2.7 µM

## Cc1cc(C(F)(F)F)cc(N2C(=O)OC[C@H]2C(=O)N(C)c2ccc(F)c(C)c2)n1
[7]
  microsomal CLint: 404 µL/min/mg
[6]
  IC50: 0.0094 µM

## CCN(C(=O)COc1nc(C)c(Br)c(C)c1C#N)c1cccc(C)c1
[6]
  IC50: 1.5 µM

## CCN(C(=O)[C@@H]1COC(=O)N1c1cc(C(F)(F)F)cc(C)n1)c1ccc(F)c(Cl)c1
[7]
  microsomal CLint: 260 µL/min/mg
[8]
  logD: 4

## Cc1cccc(N(C)C(=O)[C@@H]2C[C@@H](O)CN2c2nc(C)cc(C(F)(F)F)c2C#N)c1
[2]
  EC50: 6 µM
[4]
  EC50: > 12 µM
[5]
  EC50: 0.315 µM

## Cc1cc(C(F)(F)F)cc(N2C(=O)OC[C@H]2C(=O)N(C)c2cc(Cl)c(F)cc2F)n1
[7]
  microsomal CLint: 98 µL/min/mg
